Consider 54 molecules from US11396501B2, “Heteroaryl compounds as CXCR4 inhibitors, composition and method using the same” (CGENETECH (SUZHOU, CHINA) CO., LTD., priority 2017, dated 2022).

In general, IC50 refers to the concentration that gives 50% inhibition.

The structures appear in SMILES notation.

For this assay, the target named is CXCR4 (Homo sapiens, UniProt P61073). Put plainly: FLIPR Tetra calcium mobilization assay. In kind it is cell-based. Particulars: Human CD4+ T-Cells; CXCL12 added; FLIPR Calcium 4 assay kit. On the procedure: FLIPR Tetra Calcium Mobilization Assay The FLIPR Tetra calcium mobilization assay was performed by HD Bioscience. Briefly, The Molecular Devices, Fluorescent Imaging Plate Reader (FLIPR) Tetra was used in this assay. Excitation was achieved through unique placement of LED's within the instrument and emission captured by a CCD camera (EMCCD camera for FI and ICCD camera for luminescence). The homogeneous FLIPR Calcium 4 assay kit from Molecular Devices was used as the fluorescence reagent. Compounds were solubilized in 100% dimethyl sulfoxide (DMSO) to a concentration of 30 mM. A 10-point, 4-fold, intermediate dilution series was created in 100% DMSO with a top concentration of 4 mM and a bottom concentration of 0.01 μM. A near assay ready, direct dilution plate ([…]) was prepared from this compound dilution plate by transferring 1 μL of each dilution of compound in 100% DMSO to a Greiner #781201 plate. In addition, each […] plate also contained positive and negative control wells to define the upper and lower limits for the assay signal. The final assay concentration range of compound was 10 μM to 0.035 nM in 0.5% DMSO. Human CD^4+ T-Cells were isolated from human whole blood and subsequently activated and expanded using a CD3/CD28 expansion kit (Life Technologies). The cells were frozen in ThermoFisher-formulated Recovery Cell Culture Freezing Medium containing 10% Dimethyl sulfoxide (DMSO) and 10% Fetal Bovine Serum (FBS) (ThermoFisher Catalog No. 10100147). When used, cells were resuspended using room temperature 1× HBSS/20 mM HEPES/0.005% P-104 assay buffer, adjusted the volume of the suspension to achieve a cell concentration of 2.5×10^6 cells/mL. 2× Calcium 4 dye (20 μL/well) were added and the mixture were centrifuged briefly ( 10 s) and stopped when it reached 1000 rpm. The plates were allowed to equilibrate before compounds and CXCL12 were added to the plates. The raw data were analyzed using Abase. The percent (%) effect at each concentration of compound was calculated by Abase and was based on and relative to the amount of calcium produced in the positive and negative control wells contained within each assay plate. The concentrations and % effect values for tested compounds were plotted by Abase and the concentration of compound required for 50% effect (IC50) was determined with a four-parameter logistic dose response equation. FIGS. 3 and 4 summarize the results of Compounds A78 and A83 in the calcium mobilization assay.
Sequence of CXCR4 (P61073 whole entry): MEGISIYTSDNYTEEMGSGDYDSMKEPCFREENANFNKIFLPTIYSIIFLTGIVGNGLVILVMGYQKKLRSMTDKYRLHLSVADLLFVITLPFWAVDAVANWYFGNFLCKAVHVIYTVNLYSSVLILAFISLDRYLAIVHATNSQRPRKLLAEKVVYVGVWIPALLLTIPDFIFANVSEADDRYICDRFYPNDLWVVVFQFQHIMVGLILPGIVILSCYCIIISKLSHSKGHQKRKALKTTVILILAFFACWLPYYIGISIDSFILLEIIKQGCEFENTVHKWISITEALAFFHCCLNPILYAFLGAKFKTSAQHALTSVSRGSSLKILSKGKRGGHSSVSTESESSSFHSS
For orientation: A change in cytosolic calcium serves as a functional read-out for many receptors and channels.
As for `Cc1nc(CN(C)c2cc(F)cc3cccnc23)cc(N2CCN(C)CC2)n1` [Compound D18], the IC50 is 0.79 nM.
Consider `Cc1nc(CN2CCC[C@H]2c2ncccc2C)c(F)c(N2CCN(C)CC2)n1` [Compound C33], for which the concentration for half-maximal inhibition (IC50) was 1.1 nM.
With `Cc1nc(CN(C)c2cc(S(C)(=O)=O)cc3cccnc23)cc(N2CCN(C)CC2)n1` [Compound D47], the IC50 worked out at 13 nM.
With `Cc1nc(CN(CCCC(N)=O)c2cccc3cccnc23)cc(N2CCN(C)CC2)n1` [Compound D31, 4-(((2-methyl-6-(4-methylpiperazin-1-yl)pyrimidin-4-yl)methyl)(quinolin-8-yl)amino)butanamide], the IC50 worked out at 1.25 nM.
For `CN1CCN(c2cc(CN(C)c3cccc4cccnc34)nc(C3CC3)n2)CC1` [Compound D10], the IC50 amounted to 2.9 nM.
`Cc1nc(CN(C)c2ccc(C#N)c3cccnc23)cc(N2CCN(C)CC2)n1` [Compound D42]: the IC50 was 96 nM.
Next, `Cc1nc(CN(C)c2cc(C#N)cc3cccnc23)cc(N2CCN(C)CC2)n1` [Compound D46]: 53 nM; `C[C@@H](c1ccccn1)N(C)Cc1nc2cccc(N3CCN4CCC[C@@H]4C3)n2c1CO` [Compound A100]: 0.29 nM.
Next, `Cc1nc(CN(C)c2c(F)ccc3cccnc23)cc(N2CCN(C)CC2)n1` [Compound D17]: 74 nM.
Next, `Cc1nc(CN(C)[C@@H](C)c2ccccn2)c(CO)c(N2CCN(C)[C@@H](C)C2)n1` [Compound A88]: 0.3 nM; `Cc1nc(CN(C)c2cccc3cccnc23)cc(N2CCN(CCO)CC2)n1` [Compound D5]: 2.1 nM.
Regarding `Cc1nc(CN(C)c2cc(F)cc3cccnc23)cc(N2CCN(C)C(CO)C2)n1` (stereo not drawn) [Compound D53], the IC50 was 6.7 nM.
Regarding `Cc1nc(CN(C)[C@@H](C)c2ccccn2)c(CO)c(N2CCN3CCC[C@@H]3C2)n1` [Compound A86], the IC50 was 0.13 nM.
Regarding `Cc1nc(CN(C)c2c(S(C)(=O)=O)ccc3cccnc23)cc(N2CCN(C)CC2)n1` [Compound D51], the IC50 came out at 2090 nM.
Turning to `Cc1nc(CN(C)[C@@H](C)c2ccccn2)c(CO)c(N2CCN3CCC[C@H]3C2)n1` [Compound A87], the IC50 is 0.18 nM.
`Cc1nc(CN(C)c2cccc3cccnc23)c(Cl)c(N2CCN(C)CC2)n1` [Compound D35]: the IC50 was found to be 1.2 nM.
In the case of `Cc1nc(CN(CCCC(=O)OC(C)(C)C)c2cccc3cccnc23)cc(N2CCN(C)CC2)n1` [Compound D29], the IC50 amounted to 12.7 nM.
Next, `CSc1nc(CN(C)c2cccc3cccnc23)cc(N2CCN(C)CC2)n1` [Compound D12]: 0.61 nM.
Next, `Cc1nc(CN2CCC[C@H]2c2ncccc2C)cc(N2CCC(N(C)C)CC2)n1` [Compound C37]: 12 nM; `Cc1nc(CN(C)[C@@H](C)c2ccccn2)c(CO)c(N2CCN(C)CC2)n1` [Compound A85, (S)-(2-methyl-4-((methyl(1-(pyridin-2-yl)ethyl)amino)methyl)-6-(4-methylpiperazin-1-yl)pyrimidin-5-yl)methanol]: 0.99 nM.
Take `Cc1nc(CN(C)c2c(NS(C)(=O)=O)ccc3cccnc23)cc(N2CCN(C)CC2)n1` [Compound D59]: the IC50 was 450 nM.
For `COc1nc(CN(C)c2cccc3cccnc23)cc(N2CCN(C)CC2)n1` [Compound D13], the IC50 is 2.9 nM.
Turning to `CN1CCN(c2cc(CN(C)c3cccc4cccnc34)nc(CO)n2)CC1` [Compound D54], the IC50 was 7.2 nM.
`C[C@@H](c1ccccn1)N(C)Cc1cn2c(N3CCN(C)CC3)cccc2n1` [Compound A95, (S)-N-methyl-N-((5-(4-methylpiperazin-1-yl)imidazo[1,2-a]pyridin-2-yl)methyl)-1-(pyridin-2-yl)ethan-1-amine]: the IC50 was found to be 0.13 nM.
Consider `CN1CCN(c2cc(CN(C)c3cccc4cccnc34)nc(N(C)C)n2)CC1` [Compound D11], for which the IC50 was determined as 1700 nM.
On to `Cc1cc(N(C)Cc2cc(N3CCN(C)CC3)nc(C)n2)c2ncccc2c1` [Compound D15], for which the IC50 is 0.4 nM.
With `Cc1nc(CN(C)c2cccc3cccnc23)cc(N2CCC(N(C)C)CC2)n1` [Compound D6], the IC50 is 2.4 nM.
With `Cc1nc(CN(C)c2ccc(C(F)(F)F)c3cccnc23)cc(N2CCN(C)CC2)n1` [Compound D40], the IC50 was found to be 2850 nM.
`Cc1nc(CN2CCC[C@H]2c2ncccc2C)cc(N2CCCN(C)CC2)n1` [Compound C36]: the IC50 is 0.5 nM.
For the molecule `CCN(Cc1cc(N2CCN(C)CC2)nc(C)n1)[C@@H](C)c1ccccn1` [Compound A80], the IC50 stood at 0.18 nM.
In the case of `Cc1nc(CN(C)[C@@H](C)c2ccccn2)cc(N2CCN(C)CC2CO)n1` (stereo partly drawn) [Compound A84], the IC50 was found to be 3 nM.
`Cc1nc(CN2CCC[C@H]2c2ncccc2C)cc(NCCN2CCOCC2)n1` [Compound C35]: the IC50 came to 2.7 nM.
Regarding `Cc1nc(CN(C)c2ccc(C)c3cccnc23)cc(N2CCN(C)CC2)n1` [Compound D16], the IC50 was 2.7 nM.
Next, `Cc1nc(CN(C)c2cccc3cccnc23)cc(N2CCCN(C)CC2)n1` [Compound D3]: 0.63 nM.
On to `Cc1nc(CN(C)c2ccc(F)c3cccnc23)cc(N2CCN(C)CC2)n1` [Compound D19], for which the IC50 turned out to be 0.4 nM.
Consider `C[C@@H](c1ccccn1)N(C)Cc1cc(N2CCN(C)CC2)nc(N)n1` [Compound A83], for which the IC50 came to 0.93 nM.
Take `CCN(Cc1cc(N2CCN(C)CC2)nc(C)n1)c1cc(C)cc2cccnc12` [Compound D32]: the IC50 came out at 0.53 nM.
With `C[C@@H](c1ccccn1)N(C)Cc1cc(N2CCN(C)CC2)nc(CO)n1` [Compound A81], the IC50 was determined as 4.5 nM.
Turning to `Cc1nc(CN(C)c2cc(NS(C)(=O)=O)cc3cccnc23)cc(N2CCN(C)CC2)n1` [Compound D58, N-(8-(methyl((2-methyl-6-(4-methylpiperazin-1-yl)pyrimidin-4-yl)methyl)amino)quinolin-6-yl)methane sulfonamide], the IC50 stood at 55 nM.
Next, `Cc1nc(CN(C)c2c(C#N)ccc3cccnc23)cc(N2CCN(C)CC2)n1` [Compound D50, 8-(methyl((2-methyl-6-(4-methylpiperazin-1-yl)pyrimidin-4-yl)methyl)amino)quinoline-7-carbonitrile]: 14 nM.
Next, `C[C@@H](c1ccccn1)N(C)Cc1cn2c(N3CCN4CCC[C@H]4C3)cccc2n1` [Compound A97]: 0.25 nM.
`Cc1nc(CN(C)[C@@H](C)c2ccccn2)c(CO)c(N2CCN(C)[C@H](C)C2)n1` [Compound A89]: the IC50 was determined as 0.13 nM.
Take `C[C@@H](c1ccccn1)N(C)Cc1nc2cccc(N3CCN4CCC[C@H]4C3)n2c1CO` [Compound A99]: the IC50 stood at 0.39 nM.
With `Cc1nc(CN(C)c2cccc3cccnc23)cc(N2CCC(N(C)C)C2)n1` (stereo not drawn) [Compound D7], the IC50 is 0.75 nM.
Take `CCc1nc(CN(C)c2cccc3cccnc23)cc(N2CCN(C)CC2)n1` [Compound D9]: the IC50 was 0.59 nM.
Consider `C[C@@H](c1ccccn1)N(C)Cc1cc(N2CCN3CCC[C@@H]3C2)nc(CO)n1` [Compound A82], for which the concentration for half-maximal inhibition (IC50) was 2.5 nM.
Consider `Cc1nc(CN2CCC[C@H]2c2ncccc2C)c(C#N)c(N2CCN(C)CC2)n1` [Compound C34], for which the IC50 was found to be 1.8 nM.
Turning to `Cc1nc(CN(C)c2c(C(F)(F)F)ccc3cccnc23)cc(N2CCN(C)CC2)n1` [Compound D48], the IC50 is 928 nM.
For `Cc1cccnc1[C@@H]1CCCN1Cc1cn2c(N3CCN(C)CC3)cccc2n1` [Compound C38, (S)-5-(4-methylpiperazin-1-yl)-2-((2-(3-methylpyridin-2-yl)pyrrolidin-1-yl)methyl)imidazo11,2-alpyridine], the IC50 was determined as 0.2 nM.
For the molecule `Cc1nc(CN(C)c2nccc3cccnc23)cc(N2CCN(C)CC2)n1` [Compound D21, N-methyl-N-((2-methyl-6-(4-methylpiperazin-1-yl)pyrimidin-4-yl)methyl)-1,7-naphthyridin-8-amine], the IC50 was found to be 1580 nM.
`C[C@@H](c1ccccn1)N(C)Cc1cn2c(N3CCN4CCC[C@@H]4C3)cccc2n1` [Compound A98]: the IC50 was determined as 0.15 nM.
Regarding `Cc1nc(CN(c2cccc3cccnc23)C2CC2)cc(N2CCN(C)CC2)n1` [Compound D26], the IC50 is 2.3 nM.
Next, `Cc1nc(CN(CCCCNC(=O)OC(C)(C)C)c2cccc3cccnc23)cc(N2CCN(C)CC2)n1` [Compound D27]: 1.7 nM; `Cc1cccnc1[C@@H]1CCCN1Cc1nc2cccc(N3CCN(C)CC3)n2c1CO` [Compound C39, (S)-(5-(4-methylpiperazin-1-yl)-2-((2-(3-methylpyridin-2-yl)pyrrolidin-1-yl)methyl)imidazo[1,2-a]pyridin-3-yl)methanol]: 0.1 nM.
